Measurements as given in patent publication US5985856A, “Water soluble prodrugs of secondary and tertiary amine containing drugs and methods of making thereof” (University of Kansas, priority 1998, dated 1999).
Converted amounts (≈) assume the structure as drawn. Read-outs that look alike come from different tables or passages of the source.

Experiments:
in vivo = details: dog, iv
Method: (§1) Cinnarizine for i.v. injection was prepared in a 10 mM phosphate buffer solution at pH 4.5 at a concentration of 12.5 mg/10 ml (3.39 mM) along with 37.5 mM sulfobutylether 4 beta-cyclodextrin as a solubilizing excipient. The cyclodextrin solution (10 ml) was prepared first and the pH adjusted to 3.5 with HCl. The cinnarizine was then added and the solution was sonicated for three hours and subsequently stirred overnight. The pH was then adjusted to 4.5 with NaOH along with the addition of 29 mg of NaCl to adjust for isotonicity. The solution was then passed through a 0.22 μM nylon-membrane filter just prior to administration. The prodrug injection was prepared by dissolving 16.97 mg or cinnarizine prodrug in 10 ml of 0.9% NaCl sterile solution (3.39 mM) for injection. The solution was passed through a 0.22 μM nylon-membrane filter just prior to injection.
(§2) The evaluation of the cinnarizine plasma concentration versus time was conducted with a male beagle dog weighing 11.1 kg. The dog received the cinnarizine injection followed by a two-week washout period then received the prodrug injection in an equal molar quantity. Samples were taken from the dog prior to dosing (10 ml blank plasma) and 2, 6, 10, 20, 40 min and 1, 2, 4, 6, 8, 24 hours post-dosing (3 ml each). Blood samples were drawn from either cephalic, saphenous, or jugular vein. The samples were centrifuged for 10 minutes and 1 ml of plasma was measured and frozen at -20° C. prior to sampling by HPLC. The dog received a regular diet between experiments and was fasted the day of the experiment.
(§3) Plasma concentrations of cinnarizine were determined by HPLC with fluorescence detection. To each one milliliter of plasma was added: 100 μL of acetonitrile-H2O (70:30, v/v), containing 40 μg meclizine (internal standard), and 100 μL of 0.5 M HCl. The plasma sample was then vortexed for 30 seconds. One ml of carbon tetrachloride was then combined with the sample for an additional one minute of vortexing. Samples were then centrifuged for ten minutes after which the carbon tetrachloride was removed and evaporated to dryness under a stream of dry nitrogen. The residue was then redissolved in 200 μL of acetonitrile-H2 O (70:30, v/v) prior to sampling by HPLC. The results were calculated from peak area ratios. A six-point standard curve was obtained using the above procedure with addition of cinnarizine concentrations in the range of 5.5 to 550 ng/ml of plasma. A three-point calibration was performed on the day of the study using high, medium and low cinnarizine concentrations. This calibration was used for the quantification of cinnarizine concentration in the samples.
(§4) The HPLC system consisted of a Shimadzu LC-6A pump (Kyoto, Japan), a Rheodyne 7125 injector (Cotati, Calif.), a Shimadzu RF-535 Fluorescence HPLC monitor (Kyoto, Japan), and a Shimadzu CR-601 integrator (Kyoto, Japan). The HPLC conditions were as follows: injection volume, 50 μL; flow rate, 1.5 ml/min; excitation at 260 nm and emission at 315 nm. The stationary phase was a C18 ODS Hypersil reverse phase column (15 cm×4.6 mm i.d., 5 μM). The mobile phase was a 7 to 3 ratio of aceronitrile to buffer, respectively. The buffer consisted of 25 mmole potassium dihydrogen phosphate (adjusted to pH 3.9 with phosphoric acid) and 10 mM tetrabutyl ammonium dihydrogen phosphate.
(§5) Pharmacokinetic analysis was performed on the semilogarithmic plot of cinnarizine plasma concentration versus time post dosing for both the cinnarizine and cinnarizine prodrug injections. […] The equation had the form: C=A1e^-A1t +A2e^-A2t +A3e^-A3t, where t is time. Plasma terminal half life (t1/2) is calculated from t1/2 =0.693/λ3.

[1] = Pharmacokinetic evaluation of cinnarizine plasma concentration after i.v. injection; details: male beagle dog
Method: as §1, §2, §3, §4, §5

physchem [2] = format: physicochemical
Method: Loxamine succinate is obtained from Research Biochemicals Incorporated (Natick, Mass.). […] Each pH solution is a 0.05 M buffered solution with an ionic strength adjusted to μ=0.2 with NaCl. The pH values along with their buffer composition are listed: pH 3.24, HCl/CH3 COONa; pH 3.96 and 4.96, CH3 COOH/CH3 COONa; pH 5.82-7.94, NaH2 PO4 /Na2 HPO4; pH 8.95 and 9.98, H3 BO3 /NaOH. The volume of buffer used in the experiments varies; samples with pH equal to or below 4.96 utilize 2 ml of buffer whereas the higher pH samples has a volume of 5 ml. […] The vials are then capped, sonicated and vortexed prior to submersion in a constant temperature shaking water bath at 25° C. The samples are shaken at a rate of 100 shakes/min. for at least 24 hours. […] The filtrates/supernatants are then appropriately diluted for quantification by HPLC. […] A C-18 reversed phase column (150×4 mm, ODS Hypersil, 5 μm particle size) is used for the analysis. The HPLC assays are carried out using UV detection at 254 nm. The mobile phase consists of acetonitrile and 25 mM of aqueous potassium phosphate monobasic solution adjusted to pH 3.8 with phosphoric acid. 0.15% of triethylamine is contained in the aqueous buffer.

[3] = Preliminary visual solubility estimates of synthesized prodrugs; format: physicochemical; details: preliminary visual estimate, pH 7.4
Source text: The present prodrugs are designed to increase the aqueous solubility and safety of amine-containing drugs. Preliminary visual solubility estimates for each of the prodrugs are listed below in Table 2.

[4] = dog, in vivo
Method: as §1, §2, §3, §4, §5

physchem [5] = format: physicochemical; details: for solubility: 24 h
Method: Each pH solution contains 0.05 M buffer with an ionic strength adjusted to μ=0.2 with NaCl. The pH 3 buffer composition is HCl/CH3 COONa; whereas, the pH 7.4 buffer composition is NaH2 PO4 /Na2 HPO4. The volume of buffer used in the experiments is 150 μl. To this is added excess of the loxapine prodrug in one ml glass screw top vials. The vials are then capped, sonicated and vortexed prior to submersion in a constant temperature shaking water bath at 25° C. The samples are shaken at a rate of 100 shakes/min. for at least 24 hours. The suspensions are then placed in a micro centrifuge to precipitate the excess drug. A volume of 50 μl of the supernatant is then appropriately diluted with water for quantification by reverse phase HPLC. […] A C-18 reversed phase column (150×4 mm, ODS Hypersil, 5 μm particle size) is used for the analysis. The HPLC assays are carried out using UV detection at 254 nm. The mobile phase consists of acetonitrile and 25 mM of aqueous potassium phosphate monobasic solution adjusted to pH 3.8 with phosphoric acid. 0.15% of triethylamine is contained in the aqueous buffer. The ratio of organic:aqueous is 32:68. The retention time is 4.2 min. when the flow rate is adjusted to 1 ml/min.

[6] = pKa determination by 31P NMR method; details: 10% d2o in h2o
physchem [7] = format: physicochemical; details: water
Method: A 0.01 M quinuclidine prodrug aqueous solution is titrated using a burette containing a 0.1 N sodium hydroxide volumetric standard solution obtained from Aldrich Chemical Company (Milwaukee, Wis.). […] This experiment is conducted at 25° C.
The first ionization constant, Ka1, is expected to be low and to be of little physiological importance; however, Ka2 is of much greater importance. With this in mind, the second ionization constant (Ka2) for the phosphate monoester promoiety of the quinuclidine was determined by two methods. These methods were potentiometric titration and ^31 P NMR. The potentiometric titration is by far the most traditional and accepted means for estimating pKa values; however, it has one main disadvantage. It requires significant quantities of, difficult to synthesize, prodrug. The quinuclidine prodrug is, by far, the simplest prodrug to synthesize and was chosen for the following experiments for that reason. For the potentiometric titration method, the volume of base added was plotted against the change in pH. This plot allows one to determine the volume of base required to reach the endpoint of the titration.

physchem [8] = details: 10% d2o in h2o
[9] = 0.05 m hcl/ch3coona buffer, pH 3
[10] = 0.05 m nah2po4/na2hpo4 buffer, pH 7.4

Work on C(=C\c1ccccc1)/CN1CCN(C(c2ccccc2)c2ccccc2)CC1 [Cinnarizine] yielded a Vd (in vivo) of 21.7 L/kg, a clearance (in vivo) of 19.5 mL/min/kg and a half-life (in vivo) of 12 h. For the same compound, the “observable signs of discomfort or toxicity after injection” value [1] was “no observable signs of discomfort or toxicity”.
CN1CCN(C2=Nc3ccccc3Oc3ccc(Cl)cc32)CC1 [Loxapine free base, Loxapine] gave a solubility (physchem [2]; 0.05 m buffer, aqueous buffer) of 0.0126 mg/mL (≈ 0.0384 mM) and a solubility (physchem [2]; hcl/ch3coona buffer, pH 3.24) of 8.23 mg/mL (≈ 25.1 mM).
Work on CCCCc1oc2ccccc2c1C(=O)c1cc(I)c(OCC[N+](CC)(CC)COP(=O)([O-])O)c(I)c1 [amiodarone prodrug] yielded a solubility [3] greater than 5 mg/mL.
In the case of O=P([O-])(O)OC[N+]1(C/C=C/c2ccccc2)CCN(C(c2ccccc2)c2ccccc2)CC1 [cinnarizine prodrug], the solubility [3] is reported as greater than 5 mg/mL, the “conversion of prodrug to cinnarizine upon intravenous administration” value [4] is reported as “rapidly and quantitatively converted to cinnarizine” and the Cl ([4]; iv) is reported as 19.5 mL/min/kg. The Vd ([4]; iv) was 21.2 L/kg, the “t1/2 (plasma terminal half life of cinnarizine)” value ([4]; iv) was 12.6 h and the “observable signs of discomfort or toxicity after injection” value [1] was “no observable signs of discomfort or toxicity”.
In the case of C[N+]1(COP(=O)([O-])O)CCN(C2=Nc3ccccc3Oc3ccc(Cl)cc32)CC1 [loxapine prodrug], the solubility (physchem [5]; [9]) is reported as 290.5 ± 2.9 mg/mL (≈ 664 mM), the solubility at 24 h (physchem [5]; [9]) is reported as 290.5 ± 2.9 mg/mL (≈ 664 mM) and the solubility (physchem [5]; [10]) is reported as 648.2 ± 0.6 mg/mL (≈ 1480 mM). For the same compound, the solubility at 24 h (physchem [5]; [10]) was 648.2 ± 0.6 mg/mL (≈ 1480 mM), the “solubility limit relative to the concentration used in the parenteral formulation (50 mg/ml loxapine)” value (physchem [5]; without cosolvents) was 9.7 times and the solubility [3] was greater than 600 mg/mL. For the same compound, the pKa [6] was 4.7.
With O=P([O-])(O)OC[N+]12CCC(CC1)CC2 [quinuclidine prodrug] the pKa (physchem [7]) was 5 and the pKa (physchem [8]) was 4.9.
